In data set [1] the test system is women suffering from painful menstrual cramps. The note with it: 100 mg niacin twice daily, then every 2-3 hours during heavy cramps; cited from earlier work.
A further data set has as its system alcoholics. The note with it: three or more grams of niacin daily, five year study; cited from earlier work.
The nature of data set [2]: Dissolution and hydrolysis in simulated gastric fluid (SGF) pH 1.1, release of niacin. The format is physicochemical. The note with it: for release of niacin in SGF, allo-IHN compared with myo-IHN (FIG. 8): SGF pH 1.1, up to 150 hours; for time to complete dissolution in SGF: 25 mg in 25 mL SGF pH 1.1, 37°C, shaking. As to the method:
The hydrolysis was performed in a 37±1° C. thermostatic water bath with a shaking rate at 97±2 rpm. At various time intervals, 100 μl aliquots were taken from the reaction mixture and diluted with 1.5 mL 80/20 acetonitrile/formic acid which were used to quench the hydrolysis reaction.
The pH of the SGF solution was 1.1 at 22° C. […] The reactor was placed in a thermostatic water bath at 37±1° C. with a shaking rate at 42±1 rpm. At various reaction times, 1 mL aliquots were taken from the reaction mixture and analyzed for niacin by HPLC.

The nature of data set [3]: Dissolution and hydrolysis in pH 7.4 phosphate buffer (SIF without pancreatin). Particulars: at about 25 hours. The format is physicochemical. As to the method:
A pH 7.4 phosphate buffer solution was also prepared from a SIF test solution in the absence of pancreatin. […] The release of niacin and the appearance of the degradation intermediates were monitored up to about 74 hours.

The next data set has as its system Esterase. In words: Hydrolysis in pH 7.4 phosphate buffer (SIF) with esterase. Particulars: for degradation intermediates (penta-, tetra-, tri-, di-niacinates) observed: 16 hours. The format is in vitro ADME. As to the method:
Esterase is an enzyme found in animal liver which catalyzes the hydrolysis of esters. The esterase reaches maximum activity in pH 8.0 borate buffer at 25° C. Simulated intestinal fluid without pancreatin (SIF, 1 L) was prepared according to USP standard procedure (USP29-NF24 S2). The pH of the SIF solution was then adjusted to 7.4. Esterase (6.0 mg) was then added to 200 mL of the pH 7.4 phosphate buffer. […] After sonication for about 1 minute these suspensions were carefully transferred to the hydrolysis medium. As each suspension was added to the pH 7.4 phosphate buffer, a milky white precipitated immediately appeared. The reactors were kept in a thermostatic water bath at 37±1° C. with a shaking rate at 42±1 rpm. At various reaction times ˜2 mL aliquots were taken from the hydrolysis solutions and filtered through 0.45 μm filters in order to remove any undissolved materials. The samples for HPLC analysis were prepared by addition of 20 μL 6N HCl to 1 mL filtrate.

For data set [4] the following is noted: 250 mg 3 times daily combined with Mg-chlorophenoxyisobutyrate; cited from earlier work.
Data set [5] can be described thus: Dissolution and hydrolysis in SIF with pancreatin at pH 6.7. The format is in vitro ADME. The note with it: pH 6.7, up to 40 hours. As to the method: Simulated intestinal fluid (SIF) with pancreatin was prepared according to the USP standard procedure (USP29-NF24 S2) with a pH of 6.7 at 24° C.
[6] abbreviates: pH 7.4 phosphate buffer with esterase.

The values below come from patent US20090326013A1, “ISOMERS OF INOSITOL NIACINATE AND USES THEREOF” (priority 2007, published 2009).

For the compound `O=C(O)c1cccnc1` [niacin, pyridine-3-carboxylic acid], the “participants experiencing significant relief of menstrual cramps” value in data set [1] was “Ninety”. For the same compound, in the data set with alcoholics, the “alcoholics who benefit from supplementation (reduced recidivism and symptom reduction)” value was 30-60%.

Take `O=C(O[C@H]1[C@H](OC(=O)c2cccnc2)[C@H](OC(=O)c2cccnc2)[C@@H](OC(=O)c2cccnc2)[C@@H](OC(=O)c2cccnc2)[C@H]1OC(=O)c1cccnc1)c1cccnc1` [allo-IHN, allo-inositol hexaniacinate]: the “niacin released in SGF” value in data set [2] (20 mg in 200 mL SGF pH 1.1, 37°C, 118 hours) is 38.5 µg/mL. Further, the “onset of dissolution and hydrolysis in SGF” value in data set [2] (20 mg in 200 ml SGF pH 1.1, 37°C) is recorded as “began immediately after addition to the reaction medium”. Further, the “niacin released in SGF, % of theoretical niacin content” value in data set [2] (SGF pH 1.1, 118 hours, theoretical 91 μg/mL) is about 42%. Besides, in data set [2], the “release of niacin in SGF, allo-IHN compared with myo-IHN (FIG. 8)” value is “about the same”. Moreover, in data set [3] (20 mg in 200 mL pH 7.4 phosphate buffer), the “maximum concentration of niacin released” value was determined as 30.34 µg/mL. In addition, in data set [3] (pH 7.4 phosphate buffer), the “maximum niacin released, % of theoretical release” value is about 33%. In addition, in the data set with Esterase (20 mg in 200 mL pH 7.4 phosphate buffer with esterase, 25 hours), the “concentration of niacin released” value came out at 52.8 µg/mL. In the data set on Esterase (setting [6]), the “dissolution rate in the hydrolysis medium” value is reported as “relatively fast” and the “degradation intermediates (penta-, tetra-, tri-, di-niacinates) observed” value is reported as “only the degradation intermediates of allo-IHN”. For the same compound, the “niacin released, % of theoretical release” value in the data set with Esterase (pH 7.4 phosphate buffer with esterase, 25 hours) is reported as about 58%. Further, the “area response of the niacin peak compared with the myo-IHN sample” value in the data set on Esterase (pH 7.4 phosphate buffer with esterase, within one hour) was “significantly larger”. Also, the “effect of the presence of esterase on release of niacin” value with Esterase (pH 7.4 phosphate buffer with vs without esterase) is “further enhances the release of niacin”.

For `O=C(O[C@H]1[C@H](OC(=O)c2cccnc2)[C@@H](OC(=O)c2cccnc2)[C@H](OC(=O)c2cccnc2)[C@@H](OC(=O)c2cccnc2)[C@@H]1OC(=O)c1cccnc1)c1cccnc1` [scyllo-IHN, Scyllo-inositol hexaniacinate], the “time to complete dissolution in SGF” value in data set [2] is over 53 h. The “dissolution and hydrolysis after increasing acidity of the SGF medium” value in data set [2] (2 ml concentrated HCl injected after 53 hours) was “can be dissolved and the hydrolysis reaction commences to produce niacin”.

`O=C(O[C@H]1[C@H](OC(=O)c2cccnc2)[C@@H](OC(=O)c2cccnc2)[C@H](OC(=O)c2cccnc2)[C@@H](OC(=O)c2cccnc2)[C@H]1OC(=O)c1cccnc1)c1cccnc1` [IHN, inositol hexaniacinate]: in data set [4], the “influence on glucose tolerance” value is “no influence on glucose tolerance”.

With `O=C(O[C@H]1[C@H](OC(=O)c2cccnc2)[C@@H](OC(=O)c2cccnc2)[C@H](OC(=O)c2cccnc2)[C@@H](OC(=O)c2cccnc2)[C@H]1OC(=O)c1cccnc1)c1cccnc1` [myo-IHN, myo-inositol hexaniacinate, reference compound], in data set [2], the “time to complete dissolution in SGF” value is 6 h and the “release of niacin in SGF, allo-IHN compared with myo-IHN (FIG. 8)” value was “about the same”. Also, in data set [5], the “release of niacin in SIF with pancreatin” value was “very little release of niacin”. Besides, in the data set with Esterase (setting [6]), the “dissolution rate in the hydrolysis medium” value is on record as “considerably slower than the hydrolysis rate”; the “extent of hydrolysis (FIG. 9)” value is “remained as a solid and did not hydrolyze”; the “degradation intermediates (penta-, tetra-, tri-, di-niacinates) observed” value is reported as “absence of degradation intermediates”.
